Laboratory results reported in patent US12338256B2, “Aza-tetracyclic oxazepine compounds and uses thereof” (Genentech, Inc., priority 2022, dated 2025).

Legend:
[1] = tested on: HPAC (homozygous mutant KRAS G12D human pancreatic cell line); assay: KRAS 3D-Cell Proliferation Assay, HPAC (Example 503); assay type: cell-based; conditions: Homo sapiens, HPAC, 168 h, HPAC 3D culture, 7 days, CellTiter-Glo 3D; read-out: Prolif HPAC 3D ATP IC50
How it was run: (§1)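 IC50s come from a 4-parameter Hill fit of luminescence (CellTiter-Glo 3D) normalized between DMSO (0%) and 1 μM staurosporine (100%). Cells in low-attachment 3D culture, RPMI-1640 with 10% FBS, received serial compound dilutions (0.3% DMSO) after overnight and were incubated 7 days at 37 °C.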

[2] = tested on: H1975 (KRAS wild type human lung adenocarcinoma cell line); assay: KRAS 3D-Cell Proliferation Assay, H1975 (Example 503); assay type: cell-based; conditions: Homo sapiens, NCI-H1975, 168 h, H1975 3D culture, 7 days, CellTiter-Glo 3D; read-out: Prolif H1975 3D ATP IC50
How it was run: as §1

| Compound | IC50 [1] [nM] | IC50 [2] [nM] |
| --- | --- | --- |
| Cc1cc(-c2nc3c4c(nc(OC[C@@]56CCCN5C[C@H](F)C6)nc4c2F)N2C[C@H]4CC[C@H](N4)[C@H]2[C@H](C)O3)c(F)c(N)n1 [Compound 177, 3-Fluoro-4-((5S,5aS,6S,9R)-1-fluoro-12-(((2R,7aS)-2-fluorotetrahydro-1H-pyrrolizin-7°(5H)-yl)methoxy)-5-methyl-5°,6,7,8,9,10-hexahydro-5H-4-oxa-3,10°,11,13,14-pentaaza-6,9-methanonaptho[1,8-ab]heptalen-2-yl)-6-methylpyridin-2-amine] | 4450 | 20000 |
| Cc1nc(N)cc(-c2nc3c4c(nc(OCC5(CN6C[C@@H]7C[C@H]6CO7)CC5)nc4c2F)N2C[C@H]4CC[C@H](N4)[C@H]2[C@H](C)O3)c1C(F)(F)F [Compound 208, 4-((5S,5aS,6S,9R)-12-((1-(((1S,4S)-2-Oxa-5-azabicyclo[2.2.1]heptan-5-yl)methyl)cyclopropyl)methoxy)-1-fluoro-5-methyl-5a,6,7,8,9,10-hexahydro-5H-4-oxa-3,10a,11,13,14-pentaaza-6,9-methanonaphtho[1,8-ab]heptalene-2-yl)-6-methyl-5-(trifluoromethyl)pyridin-2-amine] | 4.89 | 3630 |
| Cc1c(F)c(N)cc(-c2nc3c4c(nc(OCCC5(N6CCOCC6)COC5)nc4c2F)N2C[C@H]4CC[C@H](N4)[C@H]2[C@H](C)O3)c1C(F)(F)F [Compound 149, 2-Fluoro-5-((5S,5aS,6S,9R)-1-fluoro-5-methyl-12-(2-(3-morpholinooxetan-3-yl)ethoxy)-5a,6,7,8,9,10-hexahydro-5H-4-oxa-3,10a,11,13,14-pentaaza-6,9-methanonaphtho[1,8-ab]heptalen-2-yl)-3-methyl-4-(trifluoromethyl)aniline] | 186 | 20000 |
| Cc1nc(N)cc(-c2nc3c4c(nc(OCC5(CN6CC[C@H]7OCC[C@H]76)CC5)nc4c2F)N2C[C@H]4CC[C@H](N4)[C@H]2[C@H](C)O3)c1C(F)(F)F [Compound 268, 4-((5S,5aS,6S,9R)-1-fluoro-12-((1-(((3aR,6aR)-hexahydro-4H-furo[3,2-b]pyrrol-4-yl)methyl)cyclopropyl)methoxy)-5-methyl-5a,6,7,8,9,10-hexahydro-5H-4-oxa-3,10a,11,13,14-pentaaza-6,9-methanonaphtho[1,8-ab]heptalene-2-yl)-6-methyl-5-(trifluoromethyl)pyridin-2-amine] | 2.17 | 1700 |
| Cc1c(F)c(N)nc(-c2nc3c4c(nc(OC[C@@]56CCCN5C[C@H](F)C6)nc4c2F)N2C[C@H]4CC[C@H](N4)[C@H]2[C@H](C)O3)c1C(F)(F)F [Compound 191, 3-Fluoro-6-((5S,5aS,6S,9R)-1-fluoro-12-(((2R,7aS)-2-fluorotetrahydro-1H-pyrrolizin-7a(5H)-yl)methoxy)-5-methyl-5a,6,7,8,9,10-hexahydro-5H-4-oxa-3,10a,11,13,14-pentaaza-6,9-methanonaphtho[1,8-ab]heptalen-2-yl)-4-methyl-5-(trifluoromethyl)pyridin-2-amine] | 29.6 | 1410 |
| Cc1c(F)c(N)cc(-c2nc3c4c(nc(OCC5CCC6CN(C)C(=O)CN56)nc4c2F)N2C[C@H]4CC[C@H](N4)[C@H]2[C@H](C)O3)c1C(F)(F)F (mixture of isomers) [Compound 124, 6-((((5S,5aS,6S,9R)-2-(5-Amino-4-fluoro-3-methyl-2-(trifluoromethyl)phenyl)-1-fluoro-5-methyl-5a,6,7,8,9,10-hexahydro-5H-4-oxa-3,10a,11,13,14-pentaaza-6,9-methanonaphtho[1,8-ab]heptalen-12-yl)oxy)methyl)-2-methylhexahydropyrrolo[1,2-a]pyrazin-3(4H)-one] | 293 | 12200 |
| Cc1nc(N)c(F)c(-c2nc3c4c(nc(OCC56CCN5CC(F)(F)C6)nc4c2F)N2C[C@H]4CC[C@H](N4)[C@H]2[C@H](C)O3)c1C(F)(F)F (stereo partly drawn) [Compound 220, 4-((5S,5aS,6S,9R)-12-((3,3-Difluoro-1-azabicyclo[3.2.0]heptan-5-yl)methoxy)-1-fluoro-5-methyl-5a,6,7,8,9,10-hexahydro-5H-4-oxa-3,10a,11,13,14-pentaaza-6,9-methanonaphtho[1,8-ab]heptalene-2-yl)-3-fluoro-6-methyl-5-(trifluoromethyl)pyridin-2-amine] | 11.8 | 20000 |
| Cc1nc(N)cc(-c2nc3c4c(nc(OCC56CCCN5CC(F)C6)nc4c2F)N2CC4CCC(N4)[C@H]2[C@@H](C(F)(F)F)O3)c1C(F)(F)F (stereo in doubt) [Compound 243, 4-((6R,9S)-1-fluoro-12-(((2S,7aR)-2-fluorotetrahydro-1H-pyrrolizin-7a(5H)-yl)methoxy)-5-(trifluoromethyl)-5a,6,7,8,9,10-hexahydro-5H-4-oxa-3,10a,11,13,14-pentaaza-6,9-methanonaphtho[1,8-ab]heptalene-2-yl)-6-methyl-5-(trifluoromethyl)pyridin-2-amine] | 2000 | 20000 |
| Cc1c(F)c(N)cc(-c2nc3c4c(nc(OCC5(CN6CCO[C@@H](CF)C6)CC5)nc4c2F)N2C[C@H]4CC[C@H](N4)[C@H]2[C@H](C)O3)c1C(F)(F)F [Compound 172, 2-Fluoro-5-((5S,5aS,6S,9R)-1-fluoro-12-((1-(((R)-2-(fluoromethyl)morpholino)methyl)cyclopropyl)methoxy)-5-methyl-5a,6,7,8,9,10-hexahydro-5H-4-oxa-3,10a,11,13,14-pentaaza-6,9-methanonaphtho[1,8-ab]heptalen-2-yl)-3-methyl-4-(trifluoromethyl)aniline] | 1.72 | 864 |
| Cc1c(F)c(N)cc(-c2nc3c4c(nc(OCC5CC(F)C6CCCN56)nc4c2F)N2C[C@H]4CC[C@H](N4)[C@H]2[C@H](C)O3)c1C(F)(F)F (single isomer, unassigned) [160 (diast. 1)] | 8.07 | 1000 |
| Cc1c(F)c(N)cc(-c2nc3c4c(nc(OC[C@]56CCCN5C[C@H](F)[C@@H]6F)nc4c2F)N2C[C@H]4CC[C@H](N4)[C@H]2[C@H](C)O3)c1C(F)(F)F (single isomer, unassigned) [143 (isomer 1)] | 4.72 | 972 |
| Cc1c(F)c(N)cc(-c2nc3c4c(nc(OC[C@@]56CCCN5C[C@H](F)C6)nc4c2F)N2C[C@H]4CC[C@H](N4)C2C(C(F)F)O3)c1C(F)(F)F (single isomer, unassigned) [238 (isomer 1)] | 2000 | 13500 |
| Cc1nc(N)c(F)c(-c2nc3c4c(nc(OCC5(CN6CCOCC6)CC5)nc4c2F)N2C[C@H]4CC[C@H](N4)[C@H]2[C@H](C)O3)c1C(F)(F)F [Compound 219, 3-Fluoro-4-((5S,5aS,6S,9R)-1-fluoro-5-methyl-12-((1-(morpholinomethyl)cyclopropyl)methoxy)-5a,6,7,8,9,10-hexahydro-5H-4-oxa-3,10a,11,13,14-pentaaza-6,9-methanonaphtho[1,8-ab]heptalen-2-yl)-6-methyl-5-(trifluoromethyl)pyridin-2-amine] | 3.67 | 8280 |
